# Measured values from patent publication US20080220031A1, “Dermocosmetic Preparations” (BASF Aktiengesellschaft, priority 2005, published 2008).
# Assay: Oxidation test squalene test (Raman, azo initiator V65)
# Settings: 2500 ppm test substance, azo initiator V65, 30 days at 40° C., squalene content by Raman spectrum
# Description: 3 ml of a 2% strength solution of the azo initiator V65 (from Wako) are introduced together with 2500 ppm of test substance (based on the squalene solution) into 12×100 […] Fiolax test tubes and thoroughly mixed using a laboratory shaker. The samples are then stored open in a through-circulation drying oven for 30 days at 40° C. At intervals of 7 days, the squalene content of the samples is determined by means of the Raman spectrum and chemometric evaluation. The datapoints are documented in an XY graph and the efficiency of the test substance is determined from the slope of the decomposition curves in comparison with a reference sample without test substance. The slope of the reference sample divided by the slope of the test substance sample gives the factor Q_Raman.
row,Compound,Qraman (slope of reference sample divided by slope of test substance sample)
1,CN1C(C)(C)CC(N(C=O)CCCCCCN(C=O)C2CC(C)(C)N(C)C(C)(C)C2)CC1(C)C,2.4
2,CCCCN(c1nc(NCCCN(CCN(CCCNc2nc(N(CCCC)C3CC(C)(C)N(C)C(C)(C)C3)nc(N(CCCC)C3CC(C)(C)N(C)C(C)(C)C3)n2)c2nc(N(CCCC)C3CC(C)(C)N(C)C(C)(C)C3)nc(N(CCCC)C3CC(C)(C)N(C)C(C)(C)C3)n2)c2nc(N(CCCC)C3CC(C)(C)N(C)C(C)(C)C3)nc(N(CCCC)C3CC(C)(C)N(C)C(C)(C)C3)n2)nc(N(CCCC)C2CC(C)(C)N(C)C(C)(C)C2)n1)C1CC(C)(C)N(C)C(C)(C)C1,1.4
3,CC1(C)CC(N2CN3C(=O)N4CN(C5CC(C)(C)NC(C)(C)C5)CN5C(=O)N(C2)C3C45)CC(C)(C)N1,1.3
4,CN1C(C)(C)CC(N2CN3C(=O)N4CN(C5CC(C)(C)N(C)C(C)(C)C5)CN5C(=O)N(C2)C3C45)CC1(C)C,2.2
5,CC(ON1C(C)(C)CC(O)CC1(C)C)c1ccccc1 (stereo not drawn),1.3
6,COC(=O)C(CO)ON1C(C)(C)CC(OC)CC1(C)C (stereo not drawn),1.8
7,CCCCCCCCCCCCC1CC(=O)N(C2CC(C)(C)N(C)C(C)(C)C2)C1=O (stereo not drawn),6.2
8,O=C1O[C@H]([C@@H](O)CO)C(O)=C1O [Ascorbic acid],1.2
9,CCCCCCCCON1C(C)(C)CC(OC(=O)CCCCCCCCC(=O)OC2CC(C)(C)N(OCCCCCCCC)C(C)(C)C2)CC1(C)C [Tinuvin 123],1.8
10,CCCCCCCCCCCCC1CC(=O)N(C2CC(C)(C)NC(C)(C)C2)C1=O (stereo not drawn) [drawing 31],7.1
11,Tocopherol,1.4

# Assay: not given
# Settings: footnotes 2-4: BASF Technical Information / H. Zweifel; cited from earlier work
row,Compound,pKa
1,CC1(C)CC(N2CN3C(=O)N4CN(C5CC(C)(C)NC(C)(C)C5)CN5C(=O)N(C2)C3C45)CC(C)(C)N1,9.8^2)

# Assay: Solubility of various HAS compounds in Miglyol 812
# Format: physicochemical
# Settings: introduced in portions into 10 g of Miglyol, stirred at room temperature
# Text: Experimental procedure: The respective MS compound was introduced gradually in small portions into 10 g of Miglyol and in each case stirred at room temperature until it had completely dissolved.
row,Solubility in Miglyol 812,Compound
1,min. 50%,"CCCCCCCCCCCCC1CC(=O)N(C2CC(C)(C)NC(C)(C)C2)C1=O (stereo not drawn) [2-Dodecyl-N-(2,2,6,6-tetramethyl-4-piperidinyl)succinimide]"
2,4.7%,CC1(C)CC(OC(=O)CCCCCCCCC(=O)OC2CC(C)(C)NC(C)(C)C2)CC(C)(C)N1 [Tinuvin ® 770]
3,insoluble,CC1(C)CC(N(C=O)CCCCCCN(C=O)C2CC(C)(C)NC(C)(C)C2)CC(C)(C)N1 [Uvinul ® 4050H]
